Measurements from patent US11752117B2, “Methods and compositions for diagnosing and treating glaucoma” (priority 2017, dated 2023).
“And” between values parts separate entries of the source, which are not always exact repeats. Identical values can stand only once.

Assays:
[1] = system: human trabecular meshwork cell; assay: 86Rb efflux from human trabecular meshwork cells; type: cell-based
Description: FIG. 3 depicts, in accordance with embodiments herein, effect of glybenclamide on the efflux of ^86Rb from human trabecular meshwork cell.
FIG. 4 depicts, in accordance with embodiments herein, effect of chlorpromazine on the efflux of ^86Rb from human trabecular meshwork cell.

[2] = system: sulfonylurea receptor in trabecular meshwork cells; assay: 3H-glibenclamide binding and displacement, bovine trabecular meshwork cells
Protocol: FIG. 1 depicts, in accordance with embodiments herein, binding of ^3H-glibenclamide to bovine trabecular meshwork cells (2.5×10^5 per 0.5 ml of reaction mixture) at various concentrations of ligand. Red: non-specific binding; green: specific binding. Shown is mean±SD.
(§1) FIG. 2 depicts, in accordance with embodiments herein, displacement of ^3H-glibenclamide bound to trabecular meshwork cells (green) and RIN-m5F cells (red) by tolbutamide.
Non-specific binding was determined as the residual binding in the presence of 20 μM non-labeled glibenclamide. After 2 hrs incubation, ^3H-bound glibenclamide was separated from free ^3H-glibenclamide on Whatman GF/F filters soaked in incubation buffer. Specific binding as calculated as the difference between binding in the absence and presence of non-labeled […] glibenclamide (FIG. 1).

[3] = system: rabbits; assay: Effect of KATP channel blockers and openers on intraocular pressure in rabbits; type: in vivo; conditions: 800 μg of blockers, within 1 hour
Description: Tolbutamide, a well-known and world-wide clinically approved drug to treat Type II diabetes, was used as the prototype blocker of the KATP channel. […] Tolbutamide solution decreased IOP not only in glaucomatous patients, but also in patients with elevated IOP after cataract surgery.

[4] = system: normal cynomologus monkeys; assay: Effect of tolbutamide on IOP of normal cynomologus monkeys; type: in vivo; conditions: for IOP 1 hour post-treatment OD(treated): ketamine anesthesia
Protocol: Effect of Tolbutamide on TOP of Normal Cynomologus Monkeys: Formulations of the KA channel inhibitor tolbutamidewere tested as a suspension and as a solution for its ability to lower intraocular pressure in normal cynomologus monkeys. For the suspension, 0.4% tolbutamide was prepared in NaCl/borate buffer (0.8 mg NaCl, 1.0 mg boric acid, pH 7.2, water to 1 ml; for the solution, 0.4% tolbutamide was solubilized in 0.25 M NaOH and added to 0.4% hypromellose (HPMC) and the pH adjusted to 6.7. Tonicity was adjusted to 300 mOSm with NaCl and preserved with 0.001% thimerosal. The suspension and solution were tested as follows: Monkeys were anesthetized with ketamine hydrochloride and the baseline IOP determined. One drop of drug was administered to the right eye and the IOP determined 1 hour later, while the animals were still under anesthesia; the left eye served as a control. Two animals for each treatment were used. The decrease in IOP in the untreated eye is the result of anesthesia.

[5] = biological target: T1, sulfonylurea receptor of RIN-m5F cells (Rattus norvegicus, UniProt Q09429); assay: 3H-glibenclamide displacement, RIN-m5F cells; type: binding; conditions: compared with bovine TM cells
T1 construct: displacement of ^3H-glibenclamide by tolbutamide in bovine trabecular meshwork cells and RIN-m5F cells; host or cells: RIN-m5F rat insulinoma cells
Description: as §1

[6] = system: patients with elevated IOP; assay: Effect of one drop of 0.4% tolbutamide on IOP in human subjects; type: in vivo; conditions: for effect on IOP: glaucomatous patients and patients with elevated IOP after cataract surgery (lens extraction)
Protocol: a. Effect of 1 drop of 0.4% tolbutamide. Three patients with elevated TOP, due to exfoliative glaucoma, to POAG and to the increase in TOP that occurs in some patients following lens extraction, were treated with one drop of 0.4% tolbutamide solution. TOP was measured at “0” time and at one hour intervals for 5 hours (when possible) by a nurse while the patient was in the hospital.

[7] = system: glaucoma patients; assay: Extended twice-daily 0.4% tolbutamide treatment, IOP of glaucoma patients; type: in vivo, human
Protocol: FIG. 5 depicts, in accordance with embodiments herein, long-term effect of 0.4% tolbutamide treatment on IOP of a human subject. […] The bottles were color-coded and the patient was not aware of which bottle contained the drug and which contained the vehicle. The patient and the technician measuring the patient's IOP was not aware of which bottle contained the drug and which contained the vehicle
(§2) On days 1 through 5, IOP was measured at 8:00 A.M., 1 drop of 0.4% Tolbutamide suspended in buffered PBS (pH 6.7) was instilled to the right eye and IOP measured at the indicated times. A second drop was administered at 10:00 PM. All measurements and drug administrations were done in the hospital. The bottles were color-coded and the patient was not aware of which bottle contained the drug and which contained the vehicle. […]
b. Effect of 0.4% tolbutamide on human subjects for an extended time. To determine whether longer-term treatment with tolbutamide lowered TOP without any significant side effects, […] patient was treated with one drop of 0.4% tolbutamide twice daily (FIGS. 5-7) as shown in the figures. Vials containing drug and vehicle were color-coded by the manufacturing facility; the patient, the nurse and the investigator were not aware which vial contained the drug and which vial contained the vehicle.
as §2, with “hospital, since” for “hospital. The bottles were color-coded and”, “admitted for an unrelated condition.” for “not aware of which bottle contained the drug and which contained the vehicle.”

[8] = system: ocular hypertensive patient; assay: Fluorophotometry of aqueous humor inflow and outflow facility; type: in vivo, human
Protocol: Thus, they investigated whether one drop of […] tolbutamide would affect aqueous dynamics using fluorophotometry to measure aqueous production and outflow.
Fluorophotometry. To define the mechanism of action of tolbutamide, measurements of aqueous dynamics were done on patient 2 (See FIG. 6). For this study TOP and rate of aqueous formation were measured at 9:00 A.M. The patient was asked to apply one drop of drug to the right eye at 9:15 A.M. and one at 10:00 P.M. for 3 days. On the morning of the fourth day TOP and rate of aqueous formation were again measured.
Facility of Outflow (C) was calculated after Goldman:
[formula] where IOPt is the intraocular pressure in mmHg at the time the rate of inflow is measured. Episcleral pressure for this patient was estimated at 9 mmHg.

[9] = system: patients; assay: Adverse ocular effects of tolbutamide eye drops
Description: Specifically, patients were monitored for discomfort, ocular pain, tearing, photophobia, erythema, swelling, discharge and scaling, palpebral conjunctival inflammation, bulbar conjunctival inflammation; limbal inflammation, corneal epithelial changes and focal stromal infiltrates. Symptoms were classified as 0=normal; 1=mild; 2=moderate; and 3=severe.

[10] = Patient 2, 0.4% in PBS pH 6.7 twice daily, Day 1 6:30 PM
[11] = Patient 2, 0.4% in PBS pH 6.7 twice daily, Day 2 4:00 PM
[12] = Patient 2, 0.4% in PBS pH 6.7 twice daily, Day 2 8:00 AM
[13] = Patient 2, 0.4% in PBS pH 6.7 twice daily, Day 2 8:00 PM
[14] = Patient 2, 0.4% in PBS pH 6.7 twice daily, Day 3 4:00 PM
[15] = Patient 2, 0.4% in PBS pH 6.7 twice daily, Day 3 8:00 AM
[16] = Patient 2, 0.4% in PBS pH 6.7 twice daily, Day 3 8:00 PM
[17] = Patient 2, 0.4% in PBS pH 6.7 twice daily, Day 4 4:00 PM
[18] = Patient 2, 0.4% in PBS pH 6.7 twice daily, Day 4 8:00 AM
[19] = Patient 2, 0.4% in PBS pH 6.7 twice daily, Day 4 8:00 PM
[20] = Patient 2, 0.4% in PBS pH 6.7 twice daily, Day 5 2:00 PM
[21] = Patient 2, 0.4% in PBS pH 6.7 twice daily, Day 5 8:00 AM
[22] = after 3 days, one drop of 0.5% solution to the eye twice daily

T1 sequence (Q09429 whole entry): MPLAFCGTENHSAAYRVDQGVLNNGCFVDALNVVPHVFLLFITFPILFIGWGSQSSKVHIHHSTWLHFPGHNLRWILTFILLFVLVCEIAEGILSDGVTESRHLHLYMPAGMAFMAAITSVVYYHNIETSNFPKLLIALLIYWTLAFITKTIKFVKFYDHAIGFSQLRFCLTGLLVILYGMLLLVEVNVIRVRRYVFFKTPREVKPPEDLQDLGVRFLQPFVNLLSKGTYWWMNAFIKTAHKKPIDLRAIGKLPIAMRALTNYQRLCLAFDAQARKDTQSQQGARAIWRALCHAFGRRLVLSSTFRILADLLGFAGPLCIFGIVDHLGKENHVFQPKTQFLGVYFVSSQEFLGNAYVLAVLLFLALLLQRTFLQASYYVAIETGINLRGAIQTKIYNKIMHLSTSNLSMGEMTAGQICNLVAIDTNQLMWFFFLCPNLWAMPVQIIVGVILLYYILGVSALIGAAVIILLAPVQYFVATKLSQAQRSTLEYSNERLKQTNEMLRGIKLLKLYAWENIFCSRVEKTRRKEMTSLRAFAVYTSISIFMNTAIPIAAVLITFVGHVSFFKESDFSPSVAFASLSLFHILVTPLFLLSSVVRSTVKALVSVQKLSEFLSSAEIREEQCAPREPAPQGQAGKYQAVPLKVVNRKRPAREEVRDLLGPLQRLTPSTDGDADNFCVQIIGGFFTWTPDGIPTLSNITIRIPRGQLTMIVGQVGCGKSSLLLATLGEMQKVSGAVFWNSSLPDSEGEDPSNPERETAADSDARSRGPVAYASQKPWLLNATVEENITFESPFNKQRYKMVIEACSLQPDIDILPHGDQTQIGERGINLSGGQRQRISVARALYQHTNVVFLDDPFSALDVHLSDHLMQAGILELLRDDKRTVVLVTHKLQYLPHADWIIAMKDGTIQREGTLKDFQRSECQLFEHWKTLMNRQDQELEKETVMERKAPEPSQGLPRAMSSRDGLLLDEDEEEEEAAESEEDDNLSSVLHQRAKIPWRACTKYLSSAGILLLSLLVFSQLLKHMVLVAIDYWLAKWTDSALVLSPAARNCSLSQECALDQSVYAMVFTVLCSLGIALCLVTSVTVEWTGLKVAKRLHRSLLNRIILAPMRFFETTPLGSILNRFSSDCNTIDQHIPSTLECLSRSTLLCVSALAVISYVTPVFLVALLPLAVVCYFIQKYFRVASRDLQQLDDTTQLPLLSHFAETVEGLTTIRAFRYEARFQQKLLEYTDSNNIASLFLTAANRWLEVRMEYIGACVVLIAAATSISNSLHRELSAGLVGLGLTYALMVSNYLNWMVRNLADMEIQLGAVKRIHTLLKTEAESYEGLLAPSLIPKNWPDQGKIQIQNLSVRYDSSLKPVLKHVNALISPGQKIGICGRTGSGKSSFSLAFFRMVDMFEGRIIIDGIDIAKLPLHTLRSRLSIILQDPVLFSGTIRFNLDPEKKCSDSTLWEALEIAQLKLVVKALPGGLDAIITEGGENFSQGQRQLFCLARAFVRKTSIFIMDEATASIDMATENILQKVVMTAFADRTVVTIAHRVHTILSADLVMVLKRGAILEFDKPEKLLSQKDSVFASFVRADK
T1 sequence (P70673 whole entry partner): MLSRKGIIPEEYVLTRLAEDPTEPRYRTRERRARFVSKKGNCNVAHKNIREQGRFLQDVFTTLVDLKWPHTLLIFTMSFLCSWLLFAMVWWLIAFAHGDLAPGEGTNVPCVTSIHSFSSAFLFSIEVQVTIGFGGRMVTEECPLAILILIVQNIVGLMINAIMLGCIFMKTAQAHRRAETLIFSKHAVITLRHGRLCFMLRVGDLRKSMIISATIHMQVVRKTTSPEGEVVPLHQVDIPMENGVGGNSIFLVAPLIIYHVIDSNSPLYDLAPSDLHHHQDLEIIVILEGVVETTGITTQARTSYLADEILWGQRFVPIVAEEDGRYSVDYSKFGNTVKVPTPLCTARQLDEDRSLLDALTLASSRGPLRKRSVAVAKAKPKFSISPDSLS

CN(C)CCCN1c2ccccc2Sc2ccc(Cl)cc21 [Chlorpromazine, chlorpromazine]
potassium efflux from trabecular meshwork cells as indicated by 86Rubidium efflux [1]: inhibit potassium efflux
inhibition at 1 µM ([1]; Homo sapiens, at 1 μM, dose dependent): 20%

COc1ccc(Cl)cc1C(=O)NCCc1ccc(S(=O)(=O)NC(=O)NC2CCCCC2)cc1 [Glybenclamide, glibenclamide]
potassium efflux from trabecular meshwork cells as indicated by 86Rubidium efflux [1]: inhibit potassium efflux
inhibition at 0.01 µM ([1]; Homo sapiens, at 10 nM, dose dependent): 50%
binding of 3H-glibenclamide to trabecular meshwork cells ([2]; on ice, 2 hrs incubation): have a receptor for glybenclamide
effect on intraocular pressure [3]: decreased IOP

CCCCNC(=O)NS(=O)(=O)c1ccc(C)cc1 [Tolbutamide, tolbutamide]
IOP 1 hour post-treatment OD(treated) ([4]; 0.4% solution in 0.4% HPMC pH 6.7, one drop right eye): 22 mmHg and 17 mmHg
IOP 1 hour post-treatment OD(treated) ([4]; 0.4% suspension in NaCl/borate buffer, one drop right eye): 15 mmHg and 18 mmHg
effect on IOP ([4]; cynomolgous monkeys, 500 μg, short-term 1-hour studies): decreased TOP
kinetics of displacement of 3H-glibenclamide by tolbutamide ([2]; bovine TM cells, compared with RIN-m5F cells): same kinetics
kinetics of displacement of 3H-glibenclamide by tolbutamide [5]: same kinetics
effect on intraocular pressure [3]: decreased IOP
IOP spike that occurs following cataract surgery ([6]; 0.4%): prevents the IOP spike
lowering of intraocular pressure ([6]; 0.4%, primary open angle glaucoma and exfoliative glaucoma patients): 25-50%
IOP ([6]; Patient 1 Exfoliative Glaucoma of OD, OD, 2 hrs after one drop 0.4% solution, pre-treatment 48): 44 mm of Hg
IOP ([6]; Patient 1 Exfoliative Glaucoma of OD, OD, 3 hrs after one drop 0.4% solution, pre-treatment 48): 32 mm of Hg
IOP ([6]; Patient 1 Exfoliative Glaucoma of OD, OD, 4 hrs after one drop 0.4% solution, pre-treatment 48): 30 mm of Hg
IOP ([6]; Patient 1 Exfoliative Glaucoma of OD, OD, 5 hrs after one drop 0.4% solution, pre-treatment 48): 30 mm of Hg
IOP ([6]; Patient 1 Exfoliative Glaucoma of OD, OS, 2 hrs, pre-treatment 20): 18 mm of Hg
IOP ([6]; Patient 1 Exfoliative Glaucoma of OD, OS, 3 hrs, pre-treatment 20): 14 mm of Hg
IOP ([6]; Patient 1 Exfoliative Glaucoma of OD, OS, 4 hrs, pre-treatment 20): 14 mm of Hg
IOP ([6]; Patient 1 Exfoliative Glaucoma of OD, OS, 5 hrs, pre-treatment 20): 14 mm of Hg
IOP ([6]; Patient 2 Primary Open Angle Glaucoma, OD, 1 hr after one drop 0.4% solution, pre-treatment 34): 30 mm of Hg
IOP ([6]; Patient 2 Primary Open Angle Glaucoma, OD, 3 hrs, pre-treatment 34): 26 mm of Hg
IOP ([6]; Patient 2 Primary Open Angle Glaucoma, OD, 4 hrs, pre-treatment 34): 22 mm of Hg
IOP ([6]; Patient 2 Primary Open Angle Glaucoma, OD, 5 hrs, pre-treatment 34): 22 mm of Hg
IOP ([6]; Patient 2 Primary Open Angle Glaucoma, OS, 1 hr, pre-treatment 32): 27 mm of Hg
IOP ([6]; Patient 2 Primary Open Angle Glaucoma, OS, 3 hrs, pre-treatment 32): 22 mm of Hg
IOP ([6]; Patient 2 Primary Open Angle Glaucoma, OS, 4 hrs, pre-treatment 32): 20 mm of Hg
IOP ([6]; Patient 2 Primary Open Angle Glaucoma, OS, 5 hrs, pre-treatment 32): 20 mm of Hg
IOP ([6]; Patient 3 IOP Spike after Lens Extraction, OD, 2 hrs after one drop 0.4% solution, pre-treatment 30): 20 mm of Hg
effect on IOP [6]: decreased IOP
effect on IOP ([6]; listed as tolbutamide): decrease TOP significantly
long-term effect on IOP ([7]; Patient 1 (high IOP, no visual field loss), 0.4% suspended in PBS pH 6.7, right eye twice daily, days 1-6, first day IOP remained high): decreased significantly during the next 5 days
IOP OD (treated) ([7]; Patient 2 (refractory to Timolol), 0.4% in PBS pH 6.7 twice daily, Day 1 6:00 PM, Day 1 4:00 PM value 31): 21 mm Hg
IOP OD (treated) % Change ([7]; Patient 2, 0.4% in PBS pH 6.7 twice daily, Day 1 6:00 PM): −32%
IOP OD (treated) [7, 10]: 18 mm Hg
IOP OD (treated) % Change [7, 10]: −42%
IOP OD (treated) [7, 11]: 27 mm Hg
IOP OD (treated) % Change [7, 11]: −13%
IOP OD (treated) [7, 12]: 16 mm Hg
IOP OD (treated) % Change [7, 12]: −48%
IOP OD (treated) [7, 13]: 28 mm Hg
IOP OD (treated) % Change [7, 13]: −10%
IOP OD (treated) [7, 14]: 22 mm Hg
IOP OD (treated) % Change [7, 14]: −29%
IOP OD (treated) [7, 15]: 20 mm Hg
IOP OD (treated) % Change [7, 15]: −35%
IOP OD (treated) [7, 16]: 21 mm Hg
IOP OD (treated) % Change [7, 16]: −32%
IOP OD (treated) [7, 17]: 22 mm Hg
IOP OD (treated) % Change [7, 17]: −29%
IOP OD (treated) [7, 18]: 18 mm Hg
IOP OD (treated) % Change [7, 18]: −42%
IOP OD (treated) [7, 19]: 24 mm Hg
IOP OD (treated) % Change [7, 19]: −23%
IOP OD (treated) [7, 20]: 23 mm Hg
IOP OD (treated) % Change [7, 20]: −26%
IOP OD (treated) [7, 21]: 17 mm Hg
IOP OD (treated) % Change [7, 21]: −45%
effect on IOP ([7]; glaucoma patients, 1 drop (250 μg) twice daily, 6 days of the study): decreased IOP
increase of aqueous production ([8]; 0.4%): 150%
increase of outflow via the trabecular meshwork-Schlemm's canal complex ([8]; 0.4%): 350%
net outflow increase ([8]; 0.4%): 200%
increase of aqueous formation [8, 22]: approximately 150%
increase of outflow via the trabecular meshwork/Schlemm's canal [8, 22]: 350%
Inflow OD Post-treatment ([8]; patient 2, one drop right eye twice daily for 3 days, morning of fourth day, Pre-Treatment 1.9): 3.0 µL/min
IOP OD Post-treatment ([8]; patient 2, one drop right eye twice daily for 3 days, morning of fourth day, Pre-Treatment 22): 15 mmHg
Outflow Facility OD Post-treatment ([8]; patient 2, one drop right eye twice daily for 3 days, calculated after Goldman, episcleral pressure 9 mmHg, Pre-Treatment 0.146): 0.50 μl/min/mmHg
severe symptoms of ocular toxicity ([9]; all patients, any time during the study): free of severe symptoms
symptoms of ocular toxicity, classification ([9]; drops to the eye, all cases): 0-1
